In paper PMC4945070 (PLoS Neglected Tropical Diseases, 2016):
Several values for one entry are separate records, joined by “and”; a condition that tells them apart may be missing. Equal entries are not always repeated. Entries after “also recorded” stand apart in the source; their conditions may differ. Structures can show the parent of a compound that is named as a salt. Where two headings read alike, the source gives them in different places.

Experiments:
[1] = biological target: H. contortus L-AChR1.4 (UNC-63, UNC-38, ACR-8, UNC-29.4) (Haemonchus contortus, UniProt A9XX24+D6MYF2+D6MYF3+D6MYF4); assay: cell-based; format: cell-based; design: Emax: dose or concentration left out as unconfirmed
Procedure: (§1) The H. contortus cDNAs encoding AChR subunits and ancillary proteins were available as expression clones in the pTB207 vector and C. elegans expression clones were a gift from T. Boulin.. cRNA synthesis of each construct required NheI-linearized templates and was performed with the mMessage mMachine T7 Kit (Ambion) according to the manufacturer’s instructions. cRNAs were precipitated with lithium chloride and redissolved in RNAse-free water and stored at -80°C. cRNA concentration was determined using a Nanodrop spectrophotometer (Thermo Scientific) and cRNA purity and integrity was assessed by electrophoresis through a 1% gel stained with GreenGlo nucleic acid dye (Denville Scientific Inc.).
(§2) Oocytes were collected from mature Xenopus females according to standard procedures and incubated at 19°C in a ND96 solution (NaCl 96 mM, KCl 2 mM, CaCl2 1.8 mM, MgCl2 1 mM, and HEPES 5 mM, pH 7.3 supplemented with sodium pyruvate 2.5 mM). Defolliculated oocytes were injected into the animal pole with approximately 36 nL of a cRNA mix containing 50 ng/μL of each cRNA in RNAse-free water using the Nanoject system (Drummond Scientific, Broomall, PA). Negative controls consisted of oocytes injected with RNAse-free water. Oocytes were then stored at 19°C in ND96 for 5 days to allow receptor expression. In order to prevent activation of endogenous calcium-activated chloride channels, the oocytes were incubated in ND96 supplemented with 100 μM of the calcium chelator BAPTA-AM, 4h prior to recording.
(§3) Two-electrode voltage-clamp experiments were carried out using a perfusion system connected to a flat RC-1Z chamber (Harvard Apparatus). Glass electrodes were filled with 3M KCl and checked for resistance between 1 and 3 MΩ. The oocyte bath was connected to the ground through a 3 M KCl agar bridge. Agonist and antagonists were dissolved or diluted in recording solution (100 mM NaCl, 2.5 mM KCl, 1 mM CaCl2, 5 mM HEPES, pH 7.3). All measurements were performed using a Geneclamp 500B amplifier and Digidata 1322M (Axon Instruments), oocytes were voltage-clamped at -60 mV. Drug solutions were applied to oocytes by gravity flow using perfusion syringes directly connected to the chamber. Data were collected and analyzed using Clampex 9.2 and Clampfit 9.2 (Axon Instruments, Sunnyvale, CA, USA). Traces were filtered at 30 Hz and analyzed using GraphPad Prism 5.0 software (GraphPad Software, San Diego, CA, USA). Final results are presented as means ± SE.

[2] = biological target: H. contortus L-AChR1.3 (UNC-63, UNC-38, ACR-8, UNC-29.3) (Haemonchus contortus, UniProt A9XX24+D6MYF1+D6MYF3+D6MYF4); assay: cell-based; design: Emax: dose or concentration left out as unconfirmed
Procedure: as §1, §2, §3

[3] = biological target: H. contortus L-AChR1.1 (UNC-63, UNC-38, ACR-8, UNC-29.1) (Haemonchus contortus, UniProt A9XX24+D6MYE9+D6MYF3+D6MYF4); assay: cell-based; design: Emax: dose or concentration left out as unconfirmed
Procedure: as §1, §2, §3

[4] = tested on: C. elegans L-AChR subunits (Cel-unc-63, Cel-unc-38, Cel-lev-8, Cel-lev-1) with Hco-unc-29 paralog; assay: Two-electrode voltage clamp of C. elegans / H. contortus AChR subunit admixtures in Xenopus oocytes; format: cell-based; settings: each Hco-unc-29 paralog
From the text: To confirm that the LEV sensitivity rescue could be due to the functional incorporation of parasite protein into the C. elegans L-AChR, we injected into Xenopus oocytes, cRNA admixtures of the four essential C. elegans L-AChR subunits: Cel-unc-63, Cel-unc-38, Cel-lev-8 and Cel-lev-1, the three H. contortus accessory proteins: ric-3, unc-50 and unc-74, and the Cel-unc-29 or each Hco-unc-29 paralog in turn. Reconstitution of the C. elegans L-AChR with Cel-unc-29 produced functional channels as previously described, confirming that the H. contortus accessory proteins are functional between species. Omitting unc-29 produced no response, so any current produced using parasite genes must involve their incorporation into a functional L-AChR. […] UNC-29.1 produced an average of 500 μA currents, while the other three produced reproducible currents below 200 nA with UNC-29.2 producing the smallest response on average (S1 Fig).
as §1, with “Inc.). […]” for “Inc.).”
(§4) Two-electrode voltage-clamp experiments were carried out using a perfusion system connected to a flat RC-1Z chamber (Harvard Apparatus). […] Data were collected and analyzed using Clampex 9.2 and Clampfit 9.2 (Axon Instruments, Sunnyvale, CA, USA). Traces were filtered at 30 Hz and analyzed using GraphPad Prism 5.0 software (GraphPad Software, San Diego, CA, USA). […]

[5] = biological target: H. contortus L-AChR1.1 with added UNC-29.2 (Haemonchus contortus, UniProt A9XX24+D6MYE9+D6MYF3+D6MYF4); assay: Two-electrode voltage clamp of L-AChR1.1 supplemented with unc-29.2 cRNA in Xenopus oocytes; format: cell-based
From the text: Typically, such a situation can be identified by a change in the pharmacological properties of a receptor with addition of the second subunit. To address this, we examined the possibility that UNC-29.2 may interfere with or modify the properties of the reconstituted L-AChR1.1. We prepared oocytes injected with cRNAs to express the H. contortus L-AChR1.1 and supplemented this with an increasing (0.2, 1, 5 times) concentration of cRNA for UNC-29.2 relative to UNC-29.1.
as §1, §2, §3

C. elegans = settings: 200 μM LEV
Procedure: The Cel-unc-29, unc-29.1, unc-29.2, unc-29.3, unc-29.4 cDNA sequences were amplified by PCR using primers containing restriction site inserted with restriction enzymes in the plasmid backbone (Addgene L2534) containing the myo-3 promoter. Strains used in these study were the wild-type Bristol isolate N2 and the LEV resistant isolate CB1072: unc-29 (e1072). Worms were grown on Escherichia coli OP50 seeded NGM (Nematode Growth Medium) plates at 20°C and maintained using standard culture methods. Hermaphrodite young adult C. elegans were transformed by microinjection of plasmids into the gonads. […] Successful transformation was determined by the observation of fluorescence of the selection marker in the two targeted neurones of the head region. Only worms carrying the selection marker were used for the behavioural and pharmacological analysis.
Three day old adult fluorescent worms were transferred onto unseeded NGM plates, equilibrated at 20°C, containing 200 μM LEV. Drug induced paralysis was determined by visual inspection every 15 min. Worms were defined as paralyzed if no movement was observed within five seconds after prodding the tail with a hair tip. Statistics. Experimental data are shown as mean ± S.D. Statistical comparisons between the unc-29 (e1072) mutant strain and the transformed lines were done using two-way ANOVA with Bonferroni’s multiple comparison post test. A level of p < 0.05 was considered significant.

[6] = tested on: H. contortus L-AChR1.2 (UNC-63, UNC-38, ACR-8, UNC-29.2); format: cell-based, Haemonchus contortus; settings: UNC-29.1 replaced by UNC-29.2; n = 18
Procedure: as §1, §2
as §4, with “Apparatus). Glass electrodes were filled with 3M KCl and checked for resistance between 1 and 3 MΩ. The oocyte bath was connected to the ground through a 3 M KCl agar bridge.” for “Apparatus).”

[7] = read-out: blocking of ACh elicited currents

In the case of `C[N+]1(C)CCN(c2ccccc2)CC1` [DMPP, 1,1-dimethyl-4-phenylpiperazinium iodide], the Emax at 100 µM ([1]; L-AChR1.4, agonists at 100 μM, normalized to 100 μM acetylcholine, read-out: Max. Current ± S.E.) is reported as 31.6 ± 1%, the Emax at 100 µM ([2]; L-AChR1.3, agonists at 100 μM, normalized to 100 μM acetylcholine, read-out: Max. Current ± S.E.) is reported as 36.9 ± 3.93% and the Emax at 100 µM ([3]; L-AChR1.1, agonists at 100 μM, normalized to 100 μM acetylcholine, read-out: Max. Current ± S.E.) is reported as 42 ± 1.41%.

`c1ccc([C@H]2CN3CCSC3=N2)cc1` [LEV, (-)-tetramisole hydrochloride] was tested, and the EC50 [1] was 2.48 ± 0.35 µM, the Hill [1] was 0.90 ± 0.12 and the “Relative response (LEV versus ACh)” value [1] was “LEV = ACh”. For the same compound, the Emax ([1]; read-out: Max. Current ± S.E.) was 94.7 ± 2.93%, the “current on perfusion of 100 μM LEV relative to the ACh response” value [4] was “comparable between subunit copies” and the “effect of unc-29.2 cRNA on the pharmacological response” value ([5]; 0.2, 1, 5 times unc-29.2 cRNA relative to UNC-29.1) was “no effect”. For the same compound, the EC50 ([5]; 29.1 : 29.2 cRNA 1 : 0.2) was 3.05 ± 0.44 µM, the Hill ([5]; 29.1 : 29.2 cRNA 1 : 0.2) was 0.69 ± 0.09 and the EC50 ([5]; 29.1 : 29.2 cRNA 1 : 1) was 2.41 ± 0.08 µM. It also gave a Hill ([5]; 29.1 : 29.2 cRNA 1 : 1) of 0.71 ± 0.13, an EC50 ([5]; 29.1 : 29.2 cRNA 1 : 5) of 3.7 ± 0.35 µM and a Hill ([5]; 29.1 : 29.2 cRNA 1 : 5) of 0.77 ± 0.13. For the same compound, the “paralysis on exposure to LEV” value (C. elegans; mutant unc-29(e1072) (CB1072), two hours) was “barely affected”, the “paralysis on exposure to LEV” value (C. elegans; unc-29(e1072) transfected with Cel-unc-29) was “complete rescue of LEV sensitivity” and the “paralysis on exposure to LEV” value (C. elegans; unc-29(e1072) transfected with each of the four H. contortus unc-29 copies) was “paralyzed after two hours”. For the same compound, the “paralysis on exposure to LEV” value (C. elegans; wild-type N2 worms) was “rapid paralysis that was complete after an hour”, the EC50 [2] was 1.15 ± 0.08 µM and the Hill [2] was 1.13 ± 0.09. The “Relative response (LEV versus ACh)” value [2] was “partial agonist; also recorded: LEV < ACh”, the Emax at 100 µM ([2]; read-out: LEV current, % of the ACh current) was 65.2 ± 9.9% and the Emax ([2]; read-out: Max. Current ± S.E.) was 65.2 ± 3.5%. For the same compound, the Hill [3] was 0.84 ± 0.05, the “Relative response (LEV versus ACh)” value [3] was “superagonist; also recorded: LEV > ACh” and the EC50 ([3]; EC50) was 4.9 µM and 4.91 µM. The Emax at 100 µM ([3]; read-out: LEV current, % of ACh response) was 125%, the Emax ([3]; read-out: Max. Current ± S.E.) was 125 ± 3.76% and the “current in response to 100 μM perfusion” value [6] was “failed to produce any detectable current”.

In the case of `CNC1(C)C2CCC(C2)C1(C)C` (centres unmarked) [Mecamylamine, mecamylamine hydrochloride], the “MECA inhibition (summary)” value ([1]; L-AChR1.4) is reported as “Full Inhibition”, the inhibition at 30 µM [1, 7] is reported as 96.4 ± 1.9% and the “MECA inhibition (summary)” value ([2]; L-AChR1.3) is reported as “Partial Inhibition”. For the same compound, the “Max Inhibition ± S.E.” value ([2]; L-AChR1.3, inhibition of 100 μM ACh current, dTC 100 μM, DHβE 10 μM, MECA 30 μM) was 56.87 ± 3.18, the inhibition at 30 µM [2, 7] was 56.9 ± 3.2% and the “MECA inhibition (summary)” value ([3]; L-AChR1.1) was “Full Inhibition”. For the same compound, the “Max. Inhibition ± S.E.” value ([3]; L-AChR1.1, inhibition of 100 μM ACh current, dTC 100 μM, DHβE 10 μM, MECA 30 μM) was 99.91 ± 0.09 and the inhibition at 30 µM [3, 7] was 99.9 ± 0.1%.

`CN1CCC[C@H]1c1cccnc1` [Nicotine, (-)-nicotine hydrogen tartrate] showed an Emax ([1]; read-out: Max. Current ± S.E.) of 1.52 ± 0.47%, an Emax ([2]; read-out: Max. Current ± S.E.) of 6.79 ± 1.46% and an Emax ([3]; read-out: Max. Current ± S.E.) of 4.7 ± 1.05%.

`CN1CCCN=C1/C=C/c1cccs1` [Pyrantel, pyrantel citrate] showed an Emax ([1]; read-out: Max. Current ± S.E.) of 7.32 ± 0.98%, an Emax ([2]; read-out: Max. Current ± S.E.) of 13.8 ± 1.26% and an Emax ([3]; read-out: Max. Current ± S.E.) of 11.8 ± 0.99%.
